Drawing on publication PMC2966823 (Journal of the American Chemical Society, 2010), this text covers inhibition for three molecules.

One assay deals with FGFR1/FLT2 (Homo sapiens, UniProt P11362). Nature of the assay: split-luciferase three-hybrid displacement of Jun-staurosporine, […] inhibitor. In kind it is cell-based. The following applies: read-out: % inhibition at 10 μM.
Assay [1] has as its target cAMP dependent protein kinase A, catalytic subunit α (PKA) (Homo sapiens, UniProt P17612). Described as above. Format: cell-based. The following applies: read-out: % inhibition at 10 μM.

Each structure is given as a SMILES string.

Sequence of FGFR1/FLT2 (P11362 478-767 limits assumed): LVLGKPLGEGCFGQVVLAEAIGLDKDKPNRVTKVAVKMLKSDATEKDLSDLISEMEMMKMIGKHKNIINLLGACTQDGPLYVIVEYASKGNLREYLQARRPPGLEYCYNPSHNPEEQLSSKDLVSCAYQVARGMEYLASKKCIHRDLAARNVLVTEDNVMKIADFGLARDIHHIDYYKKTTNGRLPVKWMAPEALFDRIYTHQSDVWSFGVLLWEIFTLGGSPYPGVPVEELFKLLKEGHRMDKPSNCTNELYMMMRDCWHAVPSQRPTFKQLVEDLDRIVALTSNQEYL

Take `CC(C)[C@H](CO)Nc1nc(Nc2cc(N)cc(Cl)c2)c2ncn(C(C)C)c2n1` [compound 6, aminopurvalanol A]: the inhibition (in general, the change of the read-out against control, counted positive when it falls) at 10 µM on FGFR1/FLT2 came out at 68%.
With `O=S(=O)(NCCNC/C=C/c1ccc(Br)cc1)c1cccc2cnccc12` [compound 5, H89], the inhibition at 10 µM in assay [1] was 67%.
On to `CC(C)[C@H](CO)Nc1nc(Nc2ccc(C(=O)O)c(Cl)c2)c2ncn(C(C)C)c2n1` [compound 8, purvalanol B], for which the inhibition at 10 µM on FGFR1/FLT2 stood at 58%.
